Test results as given in PubChem BioAssay (NCI).
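1) Cells in 96-well plates. 2) Compound, 48 h, 5 concentrations. 3) Linear interpolation between surrounding doses. 4) Unreached endpoint = highest concentration. The concentration for full growth arrest is given as TGI.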

Experiments:
Test in all cases: NCI-60 cell line screen, 48 h
786-0 renal = system: 786-0 renal
A549 NSCLC = system: A549 NSCLC
ACHN renal = system: ACHN renal
BT-549 breast = system: BT-549 breast
CAKI-1 renal = system: CAKI-1 renal
CCRF-CEM leukemia = system: CCRF-CEM leukemia
COLO 205 colon = system: COLO 205 colon
DU-145 prostate = system: DU-145 prostate
EKVX NSCLC = system: EKVX NSCLC
HCC-2998 colon = system: HCC-2998 colon
HCT-116 colon = system: HCT-116 colon
HCT-15 colon = system: HCT-15 colon
HL-60(TB) leukemia = system: HL-60(TB) leukemia
HOP-62 NSCLC = system: HOP-62 NSCLC
HOP-92 NSCLC = system: HOP-92 NSCLC
HS 578T breast = system: HS 578T breast
HT29 colon = system: HT29 colon
IGROV1 ovarian = system: IGROV1 ovarian
K-562 leukemia = system: K-562 leukemia
KM12 colon = system: KM12 colon
LOX IMVI melanoma = system: LOX IMVI melanoma
M14 melanoma = system: M14 melanoma
MALME-3M melanoma = system: MALME-3M melanoma
MCF7 breast = system: MCF7 breast
MDA-MB-231 breast = system: MDA-MB-231 breast
MDA-MB-435 = system: MDA-MB-435
MDA-N = system: MDA-N
NCI-H226 lung = system: NCI-H226 lung
NCI-H23 lung = system: NCI-H23 lung
NCI-H460 lung = system: NCI-H460 lung
NCI-H522 lung = system: NCI-H522 lung
NCI/ADR-RES ovarian = system: NCI/ADR-RES ovarian
OVCAR-3 ovarian = system: OVCAR-3 ovarian
OVCAR-4 ovarian = system: OVCAR-4 ovarian
OVCAR-5 ovarian = system: OVCAR-5 ovarian
OVCAR-8 ovarian = system: OVCAR-8 ovarian
PC-3 prostate = system: PC-3 prostate
RXF 393 renal = system: RXF 393 renal
SF-268 CNS = system: SF-268 CNS
SF-295 CNS = system: SF-295 CNS
SK-MEL-2 melanoma = system: SK-MEL-2 melanoma
SK-MEL-28 melanoma = system: SK-MEL-28 melanoma
SK-MEL-5 melanoma = system: SK-MEL-5 melanoma
SK-OV-3 ovarian = system: SK-OV-3 ovarian
SN12C renal = system: SN12C renal
SNB-19 CNS = system: SNB-19 CNS
SNB-75 CNS = system: SNB-75 CNS
SW-620 colon = system: SW-620 colon
T-47D breast = system: T-47D breast
TK-10 renal = system: TK-10 renal
U251 CNS = system: U251 CNS
UACC-257 melanoma = system: UACC-257 melanoma
UACC-62 melanoma = system: UACC-62 melanoma
UO-31 renal = system: UO-31 renal
A498 renal = system: A498 renal
RPMI-8226 leukemia = system: RPMI-8226 leukemia
SF-539 CNS = system: SF-539 CNS

For COc1ccc2c(c1O)[C@@]13CCCC=C1[C@@H](C2)[N+](C)(C)CC3, which TGI (786-0 renal) is on record?
Its TGI is > 100 µM.

And the TGI (A549 NSCLC)?
The TGI was > 100 µM.

And the TGI (ACHN renal)?
Its TGI is > 100 µM.

What about the TGI (BT-549 breast) of the same compound?
Its TGI is > 100 µM.

And the TGI (CAKI-1 renal)?
The TGI was > 100 µM.

What about the TGI (CCRF-CEM leukemia) of the same compound?
The TGI was > 100 µM.

What about the TGI (COLO 205 colon) of the same compound?
Its TGI is > 100 µM.

And the TGI (DU-145 prostate)?
The TGI was > 100 µM.

What about the TGI (EKVX NSCLC) of the same compound?
Its TGI is > 100 µM.

What about the TGI (HCC-2998 colon) of the same compound?
The TGI was > 100 µM.

And the TGI (HCT-116 colon)?
The TGI was > 100 µM.

And the TGI (HCT-15 colon)?
Its TGI is > 100 µM.

What about the TGI (HL-60(TB) leukemia) of the same compound?
The TGI was > 100 µM.

What about the TGI (HOP-62 NSCLC) of the same compound?
Its TGI is > 100 µM.

And the TGI (HOP-92 NSCLC)?
The TGI was > 100 µM.

And the TGI (HS 578T breast)?
The TGI was > 100 µM.

And the TGI (HT29 colon)?
Its TGI is > 100 µM.

What about the TGI (IGROV1 ovarian) of the same compound?
The TGI was > 100 µM.

And the TGI (K-562 leukemia)?
Its TGI is > 100 µM.

What about the TGI (KM12 colon) of the same compound?
Its TGI is > 100 µM.

And the TGI (LOX IMVI melanoma)?
Its TGI is > 100 µM.

What about the TGI (M14 melanoma) of the same compound?
Its TGI is > 100 µM.

What about the TGI (MALME-3M melanoma) of the same compound?
The TGI was > 100 µM.

And the TGI (MCF7 breast)?
Its TGI is > 100 µM.

What about the TGI (MDA-MB-231 breast) of the same compound?
The TGI was > 100 µM.

What about the TGI (MDA-MB-435) of the same compound?
The TGI was > 100 µM.

And the TGI (MDA-N)?
Its TGI is > 100 µM.

What about the TGI (NCI-H226 lung) of the same compound?
Its TGI is > 100 µM.

And the TGI (NCI-H23 lung)?
Its TGI is > 100 µM.

And the TGI (NCI-H460 lung)?
Its TGI is > 100 µM.

What about the TGI (NCI-H522 lung) of the same compound?
The TGI was > 100 µM.

What about the TGI (NCI/ADR-RES ovarian) of the same compound?
The TGI was > 100 µM.

What about the TGI (OVCAR-3 ovarian) of the same compound?
Its TGI is > 100 µM.

And the TGI (OVCAR-4 ovarian)?
The TGI was > 100 µM.

And the TGI (OVCAR-5 ovarian)?
Its TGI is > 100 µM.

And the TGI (OVCAR-8 ovarian)?
The TGI was > 100 µM.

What about the TGI (PC-3 prostate) of the same compound?
The TGI was > 100 µM.

And the TGI (RXF 393 renal)?
The TGI was > 100 µM.

And the TGI (SF-268 CNS)?
The TGI was > 100 µM.

What about the TGI (SF-295 CNS) of the same compound?
The TGI was > 100 µM.

And the TGI (SK-MEL-2 melanoma)?
The TGI was > 100 µM.

And the TGI (SK-MEL-28 melanoma)?
The TGI was > 100 µM.

And the TGI (SK-MEL-5 melanoma)?
Its TGI is > 100 µM.

What about the TGI (SK-OV-3 ovarian) of the same compound?
Its TGI is > 100 µM.

What about the TGI (SN12C renal) of the same compound?
The TGI was > 100 µM.

What about the TGI (SNB-19 CNS) of the same compound?
Its TGI is > 100 µM.

What about the TGI (SNB-75 CNS) of the same compound?
Its TGI is > 100 µM.

And the TGI (SW-620 colon)?
Its TGI is > 100 µM.

What about the TGI (T-47D breast) of the same compound?
The TGI was > 100 µM.

What about the TGI (TK-10 renal) of the same compound?
Its TGI is > 100 µM.

And the TGI (U251 CNS)?
Its TGI is > 100 µM.

And the TGI (UACC-257 melanoma)?
Its TGI is > 100 µM.

And the TGI (UACC-62 melanoma)?
Its TGI is > 100 µM.

And the TGI (UO-31 renal)?
Its TGI is > 100 µM.

With Cc1ccc(-n2nncc2[Si](C)(C)C)s1 as the compound, how does the TGI (786-0 renal) read?
The TGI was > 100 µM.

What about the TGI (A498 renal) of the same compound?
Its TGI is > 100 µM.

What about the TGI (A549 NSCLC) of the same compound?
The TGI was > 100 µM.

And the TGI (ACHN renal)?
The TGI was > 100 µM.

And the TGI (BT-549 breast)?
The TGI was > 100 µM.

And the TGI (CAKI-1 renal)?
Its TGI is > 100 µM.

What about the TGI (CCRF-CEM leukemia) of the same compound?
Its TGI is 56.7 µM.

And the TGI (COLO 205 colon)?
The TGI was > 100 µM.

What about the TGI (DU-145 prostate) of the same compound?
Its TGI is > 100 µM.

What about the TGI (HCC-2998 colon) of the same compound?
The TGI was > 100 µM.

And the TGI (HCT-116 colon)?
Its TGI is > 100 µM.

And the TGI (HCT-15 colon)?
Its TGI is > 100 µM.

And the TGI (HOP-92 NSCLC)?
The TGI was > 100 µM.

What about the TGI (HS 578T breast) of the same compound?
Its TGI is > 100 µM.

And the TGI (HT29 colon)?
Its TGI is > 100 µM.

What about the TGI (K-562 leukemia) of the same compound?
The TGI was > 100 µM.

And the TGI (LOX IMVI melanoma)?
Its TGI is > 100 µM.

And the TGI (M14 melanoma)?
The TGI was > 100 µM.

What about the TGI (MALME-3M melanoma) of the same compound?
Its TGI is > 100 µM.

What about the TGI (MCF7 breast) of the same compound?
The TGI was > 100 µM.

And the TGI (MDA-MB-231 breast)?
Its TGI is > 100 µM.

What about the TGI (MDA-MB-435) of the same compound?
The TGI was > 100 µM.

And the TGI (MDA-N)?
Its TGI is > 100 µM.

What about the TGI (NCI-H226 lung) of the same compound?
Its TGI is > 100 µM.

And the TGI (NCI-H23 lung)?
The TGI was > 100 µM.

And the TGI (NCI-H460 lung)?
The TGI was > 100 µM.

And the TGI (NCI-H522 lung)?
The TGI was > 100 µM.

What about the TGI (NCI/ADR-RES ovarian) of the same compound?
Its TGI is > 100 µM.

And the TGI (OVCAR-3 ovarian)?
Its TGI is > 100 µM.

What about the TGI (OVCAR-4 ovarian) of the same compound?
The TGI was > 100 µM.

What about the TGI (OVCAR-5 ovarian) of the same compound?
The TGI was > 100 µM.

What about the TGI (OVCAR-8 ovarian) of the same compound?
Its TGI is > 100 µM.

What about the TGI (PC-3 prostate) of the same compound?
The TGI was > 100 µM.

What about the TGI (RPMI-8226 leukemia) of the same compound?
The TGI was > 100 µM.

And the TGI (SF-268 CNS)?
The TGI was > 100 µM.

What about the TGI (SF-295 CNS) of the same compound?
The TGI was > 100 µM.

What about the TGI (SF-539 CNS) of the same compound?
Its TGI is > 100 µM.

What about the TGI (SK-MEL-2 melanoma) of the same compound?
Its TGI is > 100 µM.

What about the TGI (SK-MEL-28 melanoma) of the same compound?
Its TGI is > 100 µM.

What about the TGI (SK-MEL-5 melanoma) of the same compound?
The TGI was > 100 µM.

What about the TGI (SK-OV-3 ovarian) of the same compound?
The TGI was > 100 µM.

And the TGI (SN12C renal)?
Its TGI is > 100 µM.

And the TGI (SNB-19 CNS)?
Its TGI is > 100 µM.

And the TGI (SW-620 colon)?
Its TGI is > 100 µM.

And the TGI (T-47D breast)?
The TGI was > 100 µM.

What about the TGI (TK-10 renal) of the same compound?
Its TGI is > 100 µM.

What about the TGI (U251 CNS) of the same compound?
Its TGI is > 100 µM.

What about the TGI (UACC-257 melanoma) of the same compound?
The TGI was > 100 µM.

And the TGI (UACC-62 melanoma)?
The TGI was > 100 µM.

What about the TGI (UO-31 renal) of the same compound?
Its TGI is > 100 µM.
